A short description of this data set: physchem. Particulars: octan-1-ol/water.

From ChEMBL document CHEMBL3301361, “Experimental in vitro DMPK and physicochemical data on a set of publicly disclosed compounds” come the findings set out here.

Regarding `CC(=O)NCc1ccc(CN2CCN(c3ccccc3)CC2)cc1`, for the setting “pH 7.4, LogD7.4”, the log distribution coefficient (logD) (in general, lipophilicity at a set pH, counting ionised and neutral species) came out at 1.78.

Take `COc1cccc(NC(=O)c2cccc(Cc3c(C)nn(CCO)c3-c3ccccc3)c2)c1`: the pH-dependent lipophilicity (logD) (pH 7.4, LogD7.4) came to 4.29.

Where the note is “pH 7.4, LogD7.4”, `COc1cc2c(Nc3ccc(F)c(Cl)c3)c(C(N)=O)cnc2cc1OCCCN1CCN(C)CC1` gave a pH-dependent lipophilicity (logD) of 1.2.

As to `Cc1ccc(C(=O)NC2CCN(c3cc(C(N)=O)cc(Cl)n3)CC2)[nH]1`, the logD (pH 7.4, LogD7.4) turned out to be 2.64.

Consider `Cc1ccc(NC(=O)c2ccnc(N3CCOCC3)c2)cc1Nc1ccnc(OCC2CCCN(C)C2)n1` (stereo not drawn), for which the logD (pH 7.4, LogD7.4) came out at 1.9.

The compound `CN(C(=O)Cc1ccc(Cl)c(Cl)c1)C(CN1CCCC1)c1ccccc1` (stereo not drawn) gave a logD (pH 7.4) of 3.38.

Where the note is “pH 7.4, LogD7.4”, `O=C1CCOc2nc(COc3ccccc3)ccc21` returned a logD of 2.3.

For `N#Cc1cccc(COc2ccc3c(c2)OCCC3=O)c1`, the logD (pH 7.4, LogD7.4) stood at 2.8.

For `NC(=O)c1cncc(O[C@H]2C[C@H]3CC[C@@H](C2)N3Cc2ccccc2)n1`, the logD (pH 7.4) worked out at 1.1.

The compound `O=c1c2ccc(O)cc2ncn1-c1ccc(O)cc1` gave a logD (pH 7.4, LogD7.4) of 1.6.

Compound `COC(=O)C1C(OC(=O)c2ccccc2)CC2CCC1N2C` (stereo not drawn) yielded a log distribution coefficient (logD) (pH 7.4) of 1.06.

Turning to `CN(C)c1cccc2c(S(=O)(=O)Nc3cnccn3)cccc12`, the log distribution coefficient (logD) (pH 7.4, LogD7.4) was 0.9.

`CC[C@H](NC(=O)c1c(CC[S+](C)[O-])c(-c2ccccc2)nc2ccccc12)c1ccccc1` (stereo partly drawn) showed a log distribution coefficient (logD) (pH 7.4, LogD7.4) of 3.15.

In the case of `c1cncc(-c2ccc(-c3nnc(C4CN5CCC4CC5)o3)o2)c1` (stereo not drawn), the logD (pH 7.4) stood at 1.2.

Compound `CC[C@H](NC(=O)c1c([S+](C)[O-])c(-c2ccccc2)nc2cc(Br)ccc12)c1ccccc1` (stereo partly drawn) gave a logD (pH 7.4, LogD7.4) of 3.18.

Regarding `CCN(CC)C(=O)c1ccc(C(c2cccc3cccnc23)N2CCNCC2)cc1` (stereo not drawn), for the setting “pH 7.4”, the pH-dependent lipophilicity (logD) came out at 0.7.

The compound `CN1CCN(C(=O)OC2c3nccnc3C(=O)N2c2ccc(Cl)cn2)CC1` (stereo not drawn) [ZOPICLONE] gave a logD (pH 7.4) of 1.1.

With `Cc1ccc(S(=O)(=O)NC(=O)N2CCC(N3CCC(Oc4ccc(Cl)cc4)CC3)CC2)cc1`, the logD (pH 7.4, LogD7.4) worked out at 1.6.

Where the note is “pH 7.4”, `CC(C)Oc1cccc(CC(=O)N2CCC[C@](CC[N+]34CCC(c5ccccc5)(CC3)CC4)(c3ccc(Cl)c(Cl)c3)C2)c1` [NOLPITANTIUM] registered a log distribution coefficient (logD) of 1.23.

In turn, `Cc1[nH]c2nc(NCc3ccc(Cl)cc3)nn2c(=O)c1Cc1ccccc1` showed a logD (pH 7.4, LogD7.4) of 3.7.

Consider `O=C(O)CC[C@@H]1c2ccccc2C[C@H]1NC(=O)c1cc2sc(Cl)c(Cl)c2[nH]1`, for which, under “pH 7.4, LogD7.4”, the pH-dependent lipophilicity (logD) came out at 2.84.

Take `CCN(CC)C(=O)c1ccc(C2=CC3(CCNCC3)Oc3cccc(O)c32)cc1` [ADL-5859]: under “pH 7.4”, the pH-dependent lipophilicity (logD) was 0.54.

In the case of `NS(=O)(=O)c1ccc(Nc2nccc(Nc3c(Cl)ccc4c3OCO4)n2)cc1`, under “pH 7.4, LogD7.4”, the pH-dependent lipophilicity (logD) was determined as 2.7.

Turning to `CC(C)(C)OC(=O)N1CCN(c2ncc(OCc3ccc(S(C)(=O)=O)cc3)cn2)CC1`, the logD (pH 7.4, LogD7.4) worked out at 3.27.

As to `O=C1Nc2ccccc2C1(O)c1ccccc1` (stereo not drawn), the pH-dependent lipophilicity (logD) (pH 7.4, LogD7.4) stood at 1.71.

Take `O=C1C(=O)c2cc(-c3ccsc3)ccc2-c2ccccc21`: where the note is “pH 7.4, LogD7.4”, the log distribution coefficient (logD) stood at 3.1.

Regarding `O=C(O)c1[nH]c2cc(Cl)cc(Cl)c2c1/C=C1\CCN(c2ccccc2)C1=O`, the logD (pH 7.4, LogD7.4) was 1.85.

For the setting “pH 7.4, LogD7.4”, `CCCN(CCC)C(=O)c1cccc(C(=O)N[C@@H](Cc2ccccc2)[C@H](O)CNCc2cccc(OC)c2)c1` gave a logD of 2.7.

As to `Nc1c(C(=O)NC2CC2)nnc2c(-c3ncccn3)cccc12`, the logD (pH 7.4, LogD7.4) stood at 1.5.

In the case of `O=C1C2=Nc3ccccc3CN2c2ccccc21`, the log distribution coefficient (logD) (pH 7.4, LogD7.4) was determined as 2.71.

`Cc1ccc(NC(=O)c2ccnc(N3CCOCC3)c2)cc1Nc1ccnc(N(C)C2CCN(C)CC2)n1` came in with a logD (pH 7.4) of 1.8.

For the setting “pH 7.4”, `COC(=O)c1ccc2c(c1)N(CCN1CCC(NCc3ccc4c(n3)NC(=O)CO4)CC1)C(=O)CO2` displayed a log distribution coefficient (logD) of 0.83.

With `Cc1nc(C)c(-c2ccc([C@H]3CC[C@H](CC(=O)O)CC3)c(F)c2)nc1C(N)=O`, the pH-dependent lipophilicity (logD) (pH 7.4, LogD7.4) was 1.3.

The compound `C[C@@H](NC1=CC(=O)NCC1)c1ccc(Nc2ncc3cc(-c4ccncc4)ccc3n2)cc1` registered a log distribution coefficient (logD) (pH 7.4, LogD7.4) of 3.02.

With `O=C(O)c1cc2ccccc2n1Cc1ccccc1`, the logD (pH 7.4) worked out at 0.78.

With `Nc1n[nH]c2c(Cl)cccc12`, the log distribution coefficient (logD) (pH 7.4, LogD7.4) amounted to 1.7.

Regarding `Cc1cc(CN2Cc3cccnc3CC2C(=O)Nc2ccc(Cl)cc2Cl)ccc1OCC(=O)O` (stereo not drawn), where the note is “pH 7.4, LogD7.4”, the logD was 1.15.

As for `O=C(N[C@H]1Cc2ccccc2N(C[C@@H](O)CO)C1=O)c1cc2cc(Cl)sc2[nH]1`, the logD (pH 7.4, LogD7.4) amounted to 3.3.

For the compound `CCN1CCN(C(=O)c2cc3cc(Cl)ccc3[nH]2)CC1`, the logD (pH 7.4, LogD7.4) is 3.14. This logD and that of the compound before are within 0.2 log units of each other.

For `O=S(=O)(NCC(c1ccccc1)N1CCCCCC1)c1ccc(F)c(F)c1` (stereo not drawn), under “pH 7.4, LogD7.4”, the pH-dependent lipophilicity (logD) was found to be 2.84.

Compound `CC(C)C[C@@H](CO)NS(=O)(=O)c1ccc(Cl)s1` yielded a logD (pH 7.4, LogD7.4) of 2.8.

Under “pH 7.4, LogD7.4”, `CCc1cc(O)c(Oc2ccc(C(N)=O)cc2F)cc1F` showed a log distribution coefficient (logD) of 2.87.

As for `CCc1cc2c(s1)-n1c(C)nnc1CN=C2c1ccccc1Cl` [ETIZOLAM], the logD (pH 7.4) worked out at 2.52.

On to `N#Cc1ccc(S(=O)(=O)NCC(c2ccccc2)N2CCCCCC2)cc1` (stereo not drawn), for which the log distribution coefficient (logD) (pH 7.4, LogD7.4) was determined as 2.86.

As for `CC(C)C(NC(=O)Cn1c(-c2ccccc2)ccc(NC(=O)NCc2cc[n+]([O-])cc2)c1=O)C(=O)C(F)(F)F` (stereo not drawn), the logD (pH 7.4, LogD7.4) amounted to 1.13.

Take `O=C(NC[C@@H](O)CN1CCC(Oc2ccc(Cl)c(Cl)c2)CC1)c1c[nH]nc1C1CC1`: for the setting “pH 7.4, LogD7.4”, the logD is 3.15.

Turning to `O=C1C(=O)c2cccnc2-c2ccccc21`, under “pH 7.4, LogD7.4”, the logD worked out at 1.88.

In turn, `O=c1[nH]n(C(c2ccccn2)C2CCCC2)c(=O)c2c(O)c3ccc(Cl)cc3nc12` (stereo not drawn) had a logD (pH 7.4, LogD7.4) of 1.9.
